Reference: ChEMBL document CHEMBL1141550, “N-Alkylated galanthamine derivatives: Potent acetylcholinesterase inhibitors from Leucojum aestivum” (Bioorg Med Chem Lett, 2008)

Target: Acetylcholinesterase (Electrophorus electricus, UniProt O42275)
Assay: Inhibition of electric eel acetylcholinesterase

Chain of Acetylcholinesterase (O42275 whole entry): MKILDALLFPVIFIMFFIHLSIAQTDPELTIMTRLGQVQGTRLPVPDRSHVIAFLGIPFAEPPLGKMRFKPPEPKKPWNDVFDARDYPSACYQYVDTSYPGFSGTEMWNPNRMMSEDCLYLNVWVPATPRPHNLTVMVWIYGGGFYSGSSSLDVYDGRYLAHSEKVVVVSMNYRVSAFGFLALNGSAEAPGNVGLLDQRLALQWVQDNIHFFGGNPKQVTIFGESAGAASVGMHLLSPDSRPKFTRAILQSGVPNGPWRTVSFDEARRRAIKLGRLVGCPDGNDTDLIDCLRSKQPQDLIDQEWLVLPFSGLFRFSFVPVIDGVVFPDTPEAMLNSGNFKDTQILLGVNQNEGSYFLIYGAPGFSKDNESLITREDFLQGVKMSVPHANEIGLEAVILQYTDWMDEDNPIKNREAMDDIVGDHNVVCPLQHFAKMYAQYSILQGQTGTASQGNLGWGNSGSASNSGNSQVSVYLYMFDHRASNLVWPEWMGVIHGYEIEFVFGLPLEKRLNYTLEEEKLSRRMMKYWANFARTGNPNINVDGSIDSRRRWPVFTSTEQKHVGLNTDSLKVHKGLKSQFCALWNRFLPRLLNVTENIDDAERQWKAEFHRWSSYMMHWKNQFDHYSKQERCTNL

SMILES	IC50 [µM]
C=C(C)CN1CC[C@@]23C=C[C@H](O)C[C@@H]2Oc2c(OC)ccc(c23)C1	0.16
C=CCN1CC[C@@]23C=C[C@H](O)C[C@@H]2Oc2c(OC)ccc(c23)C1 [N-ALLYLNORGALANTHAMINE]	0.18
